Laboratory results: patent publication US12727599B2, “Use of cyclodextrins as agrochemical delivery system” (priority 2018, dated 2026)

Tests used:
[1] = Complexation ability of cyclodextrins with chlorantraniliprole; format: physicochemical
[2] = Phase solubility isotherms of folpet-cyclodextrin complexes; format: physicochemical; conditions: with folpet
Experimental: The weight ratio of folpet to cyclodextrin was approximately 1:2. The content of folpet in the complex was determined by HPLC. Phase solubility isotherms were carried out for the folpet-cyclodextrin complexes.

complexation ability [1]	Compound	complexation ability [2]
highest complexation ability	OC[C@H]1O[C@@H]2O[C@H]3[C@H](O)[C@@H](O)[C@@H](O[C@H]4[C@H](O)[C@@H](O)[C@@H](O[C@H]5[C@H](O)[C@@H](O)[C@@H](O[C@H]6[C@H](O)[C@@H](O)[C@@H](O[C@H]7[C@H](O)[C@@H](O)[C@@H](O[C@H]1[C@H](O)[C@H]2O)O[C@@H]7CO)O[C@@H]6CO)O[C@@H]5CO)O[C@@H]4CO)O[C@@H]3CO [Alpha-cyclodextrin, alpha cyclodextrin]	–
–	methyl-beta-cyclodextrin [RAMEB cyclodextrin]	highest complexation ability
